Test results taken from patent US20250025439A1, “DERIVATIVES OF NIFUROXAZIDE FOR USE IN THE TREATMENT OF MITOCHONDRIAL DISORDERS AND NEURODEGENERATIVE DISEASES” (priority 2021, published 2025).

Test system: patient motor neurons
Assay: Electron microscopy of mitochondrial morphology in iPSC-derived motor neurons
Assay type: cell-based, human
Conditions: NFX 0.5 μM, 72 h
Procedure: Cells were seeded on 24 wells/plate, fixed with 1.6% glutaraldehyde in 0.1 M cacodylate buffer (pH 7.4) for 2 hours, rinsed and postfixed in 1% osmium tetroxide and 1% potassium ferrocyanide in 0.1 M cacodylate buffer before to processed for ultrastructure as previously described (Bannwarth et al., Brain, 2014, 137, 2329-2345). The protocol for contrasting sections was slightly modified, using a 5% Lanthanide salt solution (a mixture of Gadolinium acetate and Samarium acetate) for 7 minutes instead of uranium acetate. The cells were examined under a JEOL 1400 transmission electron microscope. The ultrastructure of mitochondria was classified in three categories. Normal: the mitochondria have numerous, parallel and well organized cristae. Intermediary: the mitochondria have less cristae, they show few round or swollen cristae or have a mild disorganisation. Abnormal: the mitochondria have swollen, disorganized or no cristae. More than 100 mitochondria were classified per condition. iPSC clones were generated from human fibroblasts as previously described (Genin et al., Acta Neuropathol., 2019, 138, 123-145). Motor neurons were differentiated from iPSC using previously described and validated protocols with some modifications. Briefly, iPSC clones were detached by Accutase treatment to form small clusters. […]

O=C(N/N=C/c1ccc([N+](=O)[O-])o1)c1ccc(O)cc1 [NFX, (E)-4-hydroxy-N′-((5-nitrofuran-2-yl)methylene)benzohydrazide]
mitochondrial morphology and cristae shape (EM): improved
